Measurements published in US11773062B2, “Deuterated compounds” (priority 2021, dated 2023).

How the values were obtained:
[1] = Human liver mitochondrial fraction intrinsic clearance of SPL026, SPL028i, SPL028iii, SPL028viii; type: in vitro ADME; settings: for Intrinsic Clearance / half-life: 0.5 mg/mL human liver mitochondrial fraction (Table 10)
Text: (§1) Human Liver Mitochondrial (HLMt) fractions contain high quantities of MAO enzymes and therefore, provide a useful tool to measure the clearance of MAO substrates.

[2] = test system: human (mixed gender) hepatocytes; experiment: In vitro intrinsic clearance in human hepatocytes with and without MAO-A/B inhibitor combination (first experiment); settings: for % change in half-life, MAO inhibitors vs no inhibitors / % change in intrinsic clearance, MAO inhibitors vs no inhibitors: human hepatocytes (Table 5)
Method: Standard final incubation conditions are 1 μM compound in buffer containing nominally ˜0.5 million viable cells/mL, ˜0.9% (v/v) acetonitrile (MeCN) and ˜0.1% (v/v) DMSO (specific assay concentrations outlined above, section 2).
Samples are then centrifuged at 4° C.

[3] = Human liver mitochondrial fraction intrinsic clearance of SPL026 with/without MAO-A and MAO-B inhibitors; type: in vitro ADME
Text: as §1

[4] = In vitro mouse hepatocytic intrinsic clearance; settings: male, CD-1, mouse, hepatocytes
[5] = test system: mouse (male CD-1) hepatocytes; experiment: In vitro mouse hepatocytic intrinsic clearance; settings: mouse CD-1 hepatocytes 0.367 million cells/mL, 5 μM (Table 8)
CYP1A2 = target: T1, CYP1A2 (Homo sapiens, UniProt P05177); experiment: in vitro; settings: human, recombinant enzyme, pH 7.4
T1 sequence (P05177 1-516): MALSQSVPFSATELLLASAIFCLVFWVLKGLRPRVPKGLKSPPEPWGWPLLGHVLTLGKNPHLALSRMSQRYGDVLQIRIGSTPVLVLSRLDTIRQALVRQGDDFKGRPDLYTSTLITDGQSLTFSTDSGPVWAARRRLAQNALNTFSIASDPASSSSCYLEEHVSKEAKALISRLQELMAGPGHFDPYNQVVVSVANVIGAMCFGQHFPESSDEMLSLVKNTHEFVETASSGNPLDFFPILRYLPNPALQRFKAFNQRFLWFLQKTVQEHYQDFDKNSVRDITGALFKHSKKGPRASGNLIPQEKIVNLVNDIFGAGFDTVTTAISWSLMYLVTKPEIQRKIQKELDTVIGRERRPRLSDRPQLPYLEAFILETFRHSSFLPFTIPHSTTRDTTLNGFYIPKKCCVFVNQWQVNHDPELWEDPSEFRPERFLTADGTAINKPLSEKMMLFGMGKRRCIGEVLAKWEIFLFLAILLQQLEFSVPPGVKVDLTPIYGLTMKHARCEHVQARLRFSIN
Method: (§2) Samples were taken at predetermined time points.
(§3) Samples were then centrifuged at −4° C.
(§4) Positive control markers are as specified in Table 11.

CYP2C9 = CYP2C9 (Homo sapiens, UniProt P11712); experiment: in vitro; settings: human, recombinant enzyme, pH 7.4
CYP2C9, sequence (P11712 whole entry): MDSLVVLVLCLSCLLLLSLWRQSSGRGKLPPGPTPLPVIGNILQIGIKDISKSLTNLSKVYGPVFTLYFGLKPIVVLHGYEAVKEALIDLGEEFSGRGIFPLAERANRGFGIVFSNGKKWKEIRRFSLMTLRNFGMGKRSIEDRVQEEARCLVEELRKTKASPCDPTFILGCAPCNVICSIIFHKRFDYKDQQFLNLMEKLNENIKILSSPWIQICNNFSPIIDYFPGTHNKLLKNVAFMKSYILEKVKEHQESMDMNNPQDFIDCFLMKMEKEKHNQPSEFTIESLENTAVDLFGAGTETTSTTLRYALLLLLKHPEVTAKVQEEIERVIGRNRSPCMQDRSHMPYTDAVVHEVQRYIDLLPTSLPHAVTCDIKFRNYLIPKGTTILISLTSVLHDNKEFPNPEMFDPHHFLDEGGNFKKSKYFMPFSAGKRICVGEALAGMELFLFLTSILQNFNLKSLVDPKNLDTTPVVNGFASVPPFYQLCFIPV
Method: as §2, §3, §4

CYP3A5 = CYP3A5 (Homo sapiens, UniProt P20815); experiment: in vitro; settings: human, recombinant enzyme, pH 7.4
CYP3A5, sequence (P20815 whole entry): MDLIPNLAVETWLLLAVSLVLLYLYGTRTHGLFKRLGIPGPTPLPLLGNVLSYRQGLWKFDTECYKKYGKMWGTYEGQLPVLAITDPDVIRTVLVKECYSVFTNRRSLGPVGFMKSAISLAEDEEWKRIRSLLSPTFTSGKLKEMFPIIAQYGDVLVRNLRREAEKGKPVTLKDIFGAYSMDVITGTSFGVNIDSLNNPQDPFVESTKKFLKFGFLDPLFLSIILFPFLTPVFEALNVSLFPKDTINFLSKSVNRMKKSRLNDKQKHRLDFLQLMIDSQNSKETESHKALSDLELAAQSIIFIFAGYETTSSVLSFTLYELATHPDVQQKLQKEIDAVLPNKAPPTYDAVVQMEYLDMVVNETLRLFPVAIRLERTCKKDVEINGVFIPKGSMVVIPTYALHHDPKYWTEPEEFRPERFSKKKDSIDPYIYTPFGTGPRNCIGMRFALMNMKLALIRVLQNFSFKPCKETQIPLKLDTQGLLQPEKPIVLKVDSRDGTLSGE
Method: as §2, §3, §4

CYP3A4 = CYP3A4 (Homo sapiens, UniProt P08684); experiment: in vitro; settings: human, recombinant enzyme, pH 7.4
CYP3A4, sequence (P08684 whole entry): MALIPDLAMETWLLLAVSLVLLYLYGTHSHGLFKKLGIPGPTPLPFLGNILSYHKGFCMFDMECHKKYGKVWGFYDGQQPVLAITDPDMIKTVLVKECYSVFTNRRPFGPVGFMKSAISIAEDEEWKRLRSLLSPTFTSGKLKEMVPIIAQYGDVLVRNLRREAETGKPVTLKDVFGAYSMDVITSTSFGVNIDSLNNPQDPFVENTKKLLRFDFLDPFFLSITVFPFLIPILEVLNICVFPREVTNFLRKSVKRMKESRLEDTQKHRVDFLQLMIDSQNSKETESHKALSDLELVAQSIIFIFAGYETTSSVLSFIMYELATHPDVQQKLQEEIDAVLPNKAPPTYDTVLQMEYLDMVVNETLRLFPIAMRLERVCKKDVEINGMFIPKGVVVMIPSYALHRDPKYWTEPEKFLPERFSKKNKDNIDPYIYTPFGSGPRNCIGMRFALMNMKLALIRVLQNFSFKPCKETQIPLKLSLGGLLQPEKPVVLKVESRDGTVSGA
Method: as §2, §3, §4

CYP2C19 = CYP2C19 (Homo sapiens, UniProt P33261); experiment: in vitro; settings: human, recombinant enzyme, pH 7.4
CYP2C19, sequence (P33261 whole entry): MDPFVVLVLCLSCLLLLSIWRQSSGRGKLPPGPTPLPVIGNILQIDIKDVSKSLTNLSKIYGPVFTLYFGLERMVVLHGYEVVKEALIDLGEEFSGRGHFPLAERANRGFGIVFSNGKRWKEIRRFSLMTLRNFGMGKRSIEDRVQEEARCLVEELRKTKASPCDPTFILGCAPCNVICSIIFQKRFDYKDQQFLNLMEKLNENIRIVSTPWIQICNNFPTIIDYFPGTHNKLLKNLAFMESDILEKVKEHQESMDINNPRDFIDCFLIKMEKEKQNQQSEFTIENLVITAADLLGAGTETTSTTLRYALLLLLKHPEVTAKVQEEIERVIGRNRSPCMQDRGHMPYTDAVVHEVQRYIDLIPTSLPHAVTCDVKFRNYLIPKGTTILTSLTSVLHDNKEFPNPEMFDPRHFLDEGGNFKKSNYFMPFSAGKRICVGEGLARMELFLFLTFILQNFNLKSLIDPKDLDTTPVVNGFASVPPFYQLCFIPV
Method: as §2, §3, §4

CYP2C8 = target: T2, CYP2C8 (Homo sapiens, UniProt P10632); experiment: in vitro; settings: human, recombinant enzyme, pH 7.4
T2 sequence (P10632 1-490): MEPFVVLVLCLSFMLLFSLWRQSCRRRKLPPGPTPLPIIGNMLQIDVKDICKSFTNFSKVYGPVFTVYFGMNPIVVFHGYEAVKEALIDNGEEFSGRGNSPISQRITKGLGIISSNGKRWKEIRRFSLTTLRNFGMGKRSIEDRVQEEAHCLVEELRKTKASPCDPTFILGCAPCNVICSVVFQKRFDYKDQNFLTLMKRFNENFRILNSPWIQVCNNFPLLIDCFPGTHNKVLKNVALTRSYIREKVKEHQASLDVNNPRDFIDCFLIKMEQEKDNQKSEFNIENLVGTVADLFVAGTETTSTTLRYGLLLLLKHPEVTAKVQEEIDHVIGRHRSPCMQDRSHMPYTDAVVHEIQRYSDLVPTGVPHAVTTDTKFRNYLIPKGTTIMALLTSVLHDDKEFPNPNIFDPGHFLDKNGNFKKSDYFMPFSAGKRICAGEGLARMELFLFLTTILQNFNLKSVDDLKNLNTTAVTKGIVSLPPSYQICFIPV
Method: as §2, §3, §4

[6] = human hepatocytes, with 100 nM clorgyline + 100 nM deprenyl/selegiline (Table 3)
[7] = human hepatocytes, with MAO-A/B inhibitor combination (Table 5)
[8] = human hepatocytes, without MAO inhibitors (Table 4; unit given only in Table 5)
[9] = human hepatocytes, without MAO-A/B inhibitor combination (Table 5)
[10] = 0.5 mg/mL human liver mitochondrial fraction, DMSO Vehicle (no inhibitor)
[11] = human hepatocytes, with MAO-A/B inhibitors (Table 4; unit given only in Table 5)

Structure (SMILES)	Intrinsic Clearance [1] [μL/min/mg protein]	% change in half-life, MAO inhibitors vs no inhibitors [2] [%]	% change in intrinsic clearance, MAO inhibitors vs no inhibitors [2] [%]	Intrinsic clearance, with inhibitors [2, 6] [μL/min/million cells]	Intrinsic clearance, with inhibitors [2, 7] [μL/min/million cells]	Intrinsic clearance, without inhibitors [2, 9] [μL/min/million cells]	half-life at 5 μM [4] [min]	hepatocyte CLint at 5 μM [4] [µL/min/1e6 cells]	w Half-life [5] [min]	w Intrinsic clearance [5] [μL/min/million cells]	further results
NCCc1c[nH]c2ccc(O)cc12 [Serotonin, reference compound]	151.0	73.75	−282.18	10.10	10.1	38.6	22.8	83			half-life [1]: 9.2 min; Half-life, without inhibitors [2, 8]: 33.00 min; Half-life, without inhibitors [2, 9]: 33 min; half-life [3, 10]: 11.1 min; half-life ([3]; human liver mitochondrial fraction, Clorgyline (MAO-A inhibitor) 100 nM): >420.2 min
COc1ccc([C@@H]2Sc3ccccc3N(CCN(C)C)C(=O)[C@@H]2OC(C)=O)cc1 [Diltiazem, reference compound]							< 3	> 460			
[2H]C([2H])(Cc1c[nH]c2ccccc12)N(C)C [SPL028v, α,α,-bis-deuterium-N,N-dimethyltryptamine]		11.47	−15.56	9.51	9.51	10.99			16.1	117.7	
Nc1c2c(nc3ccccc13)CCCC2 [Tacrine, reference compound]											half-life (CYP1A2): 37 min; intrinsic clearance, CYP isoform 1A2 (CYP1A2): 189 μL/min/nmol CYP
NCc1ccccc1 [Benzylamine, reference compound]	60.0	>83.41	<−450	<3.0	<3.0	16.7	14.3	134			half-life [1]: 23.2 min; fold increase in intrinsic clearance, human liver mitochondria compared to hepatocyte fraction ([1]; positive controls): ~3.6 fold; Half-life, with inhibitors [2, 7]: 460 min; Half-life, with inhibitors [2, 11]: 460.00 min; Half-life, without inhibitors [2, 8]: 76.30 min; Half-life, without inhibitors [2, 9]: 76.3 min; half-life [3, 10]: 30.4 min; half-life ([3]; human liver mitochondrial fraction, Deprenyl (MAO-B inhibitor) 100 nM): >420.2 min
[2H]C([2H])(Cc1c[nH]c2ccccc12)N(C)C [SPL028vi, α,α,-bis-deuterium-N,N-dimethyltryptamine]		20.55	−26.41	10.79	10.79	13.64			16.6	114.0	Half-life, without inhibitors [2, 8]: 95.04 min; Half-life, without inhibitors [2, 9]: 95.04 min
O=C(O)Cc1ccccc1Nc1c(Cl)cccc1Cl [Diclofenac, reference compound]							34.1	57.7			half-life (CYP2C9): 1 min; intrinsic clearance, CYP isoform 2C9 (CYP2C9): 4731 μL/min/nmol CYP
[2H]C([2H])([2H])N(C([2H])([2H])[2H])C([2H])([2H])Cc1c[nH]c2ccccc12 [SPL028viii, α,α,bis-deuterio-N,N-hexadeuterio-dimethyltryptamine]	10.9										
[2H]C([2H])(Cc1c[nH]c2ccccc12)N(C)C [SPL028iii, α,α,-bis-deuterium-N,N-dimethyltryptamine]	15.0	25.93	−35.65	6.90	6.9	9.36			17.9	106.2	half-life [1]: 31.1 min; Half-life, with inhibitors [2, 7]: 189.6 min; Half-life, with inhibitors [2, 11]: 189.60 min
Cc1ncc2n1-c1ccc(Cl)cc1C(c1ccccc1F)=NC2 [Midazolam, reference compound]											half-life (CYP3A5): 11 min; intrinsic clearance, CYP isoform 3A5 (CYP3A5): 623 μL/min/nmol CYP; half-life (CYP3A4): 5 min; intrinsic clearance, CYP isoform 3A4 (CYP3A4): 1369 μL/min/nmol CYP
CC(C)NCC(O)COc1cccc2ccccc12 (stereo not shown) [Propranolol, reference compound]											half-life (CYP2C19): 12 min
CC(C)(O)c1ccccc1CC[C@@H](SCC1(CC(=O)O)CC1)c1cccc(/C=C/c2ccc3ccc(Cl)cc3n2)c1 [Montelukast, reference compound]											half-life (CYP2C8): 62 min; intrinsic clearance, CYP isoform 2C8 (CYP2C8): 122 μL/min/nmol CYP
[2H]C([2H])(Cc1c[nH]c2ccccc12)N(C)C [SPL028iv, α,α,-bis-deuterium-N,N-dimethyltryptamine]		31.74	−49.33	7.46	7.46	11.14			17.7	106.9	change in intrinsic clearance with the inclusion of MAO inhibitors ([2]; human hepatocytes): 49%; Half-life, with inhibitors [2, 7]: 171.17 min; Half-life, with inhibitors [2, 11]: 171.17 min
